The values that follow come from US20090031433A1, “METHODS FOR SCREENING INSECTICIDES” (priority 2004, published 2009).

Assay [1] relates to D. melanogaster control strains (CONTROL 1, CONTROL 2). The experiment in a line: Topical application bioassay on adult females, control strains. It counts as in vivo, Drosophila melanogaster. Conditions: 50 ppm topical application, by 5 hours, 3 independent experiments. The procedure: (§1) For testing on adults by topical application of compounds, a method has been adapted from Dapkus (Drosophila Information Newsletter, Volume 1, January 1991; http://jfly.iam.u-tokyo.ac.jp/html/din/DIN_Vol_01—9101.txt). 0-3 day old adult D. melanogaster females are anaesthetised using CO2, and 0.4 uL of compound dissolved in acetone is applied to the abdomens of these females using a Hamilton pipette. After compound application, the flies are cultured under normal conditions for the required time intervals, and either visually assessed (as in Example 6.2) or harvested for chemical analysis (Example 7). Ideally the experiment is repeated on 3 separate ocassions
(§2) The effects of the compounds on the whole insects (larvae and adults) are monitored by visual assessment, daily or at a frequency as required. In one type of assessment, the mortality of the insects over time is scored. For example, if the adult test is used, the insects are monitored at time points that have been determined previously to be suitable for the experiment. The number of dead flies at each time point is scored.
(§3) Bioassays are carried out as described above. In one example, the insecticide Malathion was applied to 20 females at a dose of 50 ppm per time point to be assessed, according to the topical application method described above. […]

Assay [2] concerns D. melanogaster MUTANT strain (dhr96_hairpin / GAL4-arm, reduced dhr96 expression). As to the kind of experiment: Topical application bioassay on adult females, dhr96 knockdown mutant strain. Type of assay: in vivo, Drosophila melanogaster. The settings on record: 50 ppm topical application, at 5 hours, 3 independent experiments. The procedure:
as §1, §2, §3

Bounds are passed on as bounds.

On to `CCOC(=O)CC(SP(=S)(OC)OC)C(=O)OCC` (centres unmarked) [Malathion], for which, in assay [1], the percentage mortality is on record as no less than 95%. For the same compound, the mortality result in assay [2] is recorded as “no or significantly reduced mortality”.
